From patent US20260306496A1, “CDK2 INHIBITOR PYRAZOLOPYRIMIDINE COMPOUNDS” (ALEKSIA THERAPEUTICS, INC., priority 2023, published 2026)
Structures can show the parent of a compound that is named as a salt.

Each compound was assayed against CDK2/CCNE1 (Homo sapiens, UniProt P24941) (assay: CDK2 homogeneous time-resolved fluorescence (HTRF) assay). Settings: 3 nM CDK2/CCNE1, 1 mM ATP, 50 nM ULight-eIF4E-binding protein 1 (Thr37/46) peptide, 60 min at 23° C.; read-out: CDK2/CCNE IC50 <25 nM.
Format: biochemical
Experimental: A CDK homogeneous time-resolved fluorescence (HTRF) assay was used to assess the potency of the compounds described herein.
To an untreated 384-well microtiter plate (ProxiPlate) was added 100 nL 100× test compound in DMSO and 5 μL 2×CDK enzyme in assay buffer (50 mM HEPES, 1 mM EGTA, 10 mM MgCl2, 0.01% Tween 20, 2 mM DTT). The plate was centrifuged at 800 RPM for 1 min then incubated for 20 min at 23° C. 2.5 μL per well of 4×ATP and 2.5 μL 4×ULight™-eIF4E-binding protein 1 (Thr37/46) Peptide) substrate were added to all wells. After addition, the plates were centrifuged at 800 RPM for 1 min. The plates were incubated at 23° C. for 60 min. 5 μL per well 3×EDTA solution were added to each well to stop the reaction. 2.5 μL 7×LANCE Ultra Europium-anti-phospho-eTF4E-binding protein 1 (Thr37/46 antibody) were added to each well and the plate was centrifuged for 1 min at 800 RPM. The plate was incubated for 60 min at 23° C. Fluorescence was read at 340 nm excitation and 665 nm emission on an EnVision 2105 fluorescence reader. The final concentrations of reagents in the activity assay were 3 nM CDK2/CCNE1, 1 mM ATP, 50 nM ULight™-eIF4E-binding protein 1 (Thr37/46) Peptide substrate, 1% DMSO, 10 mM EDTA, and 2 nM LANCE Ultra Europium-anti-phospho-eTF4E-binding protein 1 (Thr37/46).
Dose-response titrations were conducted by using an 11-point, three-fold serial dilution scheme typically starting at 1 μM. Signals were reported as fluorescence units at 665 nm or the ratio of fluorescence units at 665 nm/fluorescence units at 615 nm. Signals are referred to below as “Lance signals”.
Using this assay, the IC50 values of example compounds were determined.

SMILES	IC50 [nM]
CN[C@H]1CC[C@@H](Cn2ncc3cnc(Nc4ccc(S(C)(=O)=O)cc4)nc32)CC1 [Compound 45, 1-(((1s,4s)-4-(methylamino)cyclohexyl)methyl)-N-(4-(methylsulfonyl)phenyl)-1H-pyrazolo[3,4-d]pyrimidin-6-amine]	< 25
CS(=O)(=O)c1ccc(Nc2ncc3cnn([C@@H]4CCC[C@@H](C#N)C4)c3n2)cc1 [Compound 46, (1R,3R)-3-(6-((4-(methylsulfonyl)phenyl)amino)-1H-pyrazolo[3,4-d]pyrimidin-1-yl)cyclohexane-1-carbonitrile]	< 25
CS(=O)(=O)c1ccc(Nc2ncc3cnn(C[C@H]4CC[C@@H](CCl)CC4)c3n2)cc1 [Compound 49, 1-(((1S,4S)-4-(chloromethyl)cyclohexyl)methyl)-N-(4-(methylsulfonyl)phenyl)-1H-pyrazolo[3,4-d]pyrimidin-6-amine]	< 25
CS(=O)(=O)c1ccc(Nc2ncc3cnn([C@@H]4CCC[C@@H](O)C4)c3n2)cc1 [Compound 51, (1R,3R)-3-(6-((4-(methylsulfonyl)phenyl)amino)-1H-pyrazolo[3,4-d]pyrimidin-1-yl)cyclohexan-1-ol]	< 25

Same assay, conditions: 3 nM CDK2/CCNE1, 1 mM ATP, 50 nM ULight-eIF4E-binding protein 1 (Thr37/46) peptide, 60 min at 23° C.; read-out: CDK2/CCNE IC50 >150 nM

SMILES	IC50 [nM]
C#CC(=O)c1ccc(Nc2ncc3cnn(CC4CCCCC4)c3n2)cc1 [Compound 38, 1-(4-((1-(cyclohexylmethyl)-1H-pyrazolo[3,4-d]pyrimidin-6-yl)amino)phenyl)prop-2-yn-1-one]	> 150
CS(=O)(=O)c1ccc(Nc2ncc3cnn(C4CC(=O)C4)c3n2)cc1 [Compound 39, 3-(6-((4-(methylsulfonyl)phenyl)amino)-1H-pyrazolo[3,4-d]pyrimidin-1-yl)cyclobutan-1-one]	> 150
CC#CS(=O)(=O)c1ccc(Nc2ncc3cnn(CC4CCCCC4)c3n2)cc1 [Compound 43, 1-(cyclohexylmethyl)-N-(4-(prop-1-yn-1-ylsulfonyl)phenyl)-1H-pyrazolo[3,4-d]pyrimidin-6-amine]	> 150
C=CC(=O)c1ccc(Nc2ncc3cnn(CC4CCCCC4)c3n2)cc1 [Compound 44, 1-(4-((1-(cyclohexylmethyl)-1H-pyrazolo[3,4-d]pyrimidin-6-yl)amino)phenyl)prop-2-en-1-one]	> 150
CS(=O)(=O)c1ccc(Nc2ncc3cnn([C@@H]4CC[C@@H](C#N)C4)c3n2)cc1 [Compound 47, (1R,3R)-3-(6-((4-(methylsulfonyl)phenyl)amino)-1H-pyrazolo[3,4-d]pyrimidin-1-yl)cyclopentane-1-carbonitrile]	> 150
CS(=O)(=O)c1ccc(Nc2ncc3cnn(C[C@H]4CC[C@H](CCl)CC4)c3n2)cc1 [Compound 48, 1-(((1R,4R)-4-(chloromethyl)cyclohexyl)methyl)-N-(4-(methylsulfonyl)phenyl)-1H-pyrazolo[3,4-d]pyrimidin-6-amine]	> 150
CS(=O)(=O)c1ccc(Nc2ncc3cnn(C[C@@H]4CCC(=O)N4)c3n2)cc1 [Compound 57, (S)-5-((6-((4-(methylsulfonyl)phenyl)amino)-1H-pyrazolo[3,4-d]pyrimidin-1-yl)methyl)pyrrolidin-2-one]	> 150
CS(=O)(=O)c1ccc(Nc2ncc3cnn(CCc4ccccc4)c3n2)cc1 [Compound 62, N-(4-(methylsulfonyl)phenyl)-1-phenethyl-1H-pyrazolo[3,4-d]pyrimidin-6-amine]	> 150
CS(=O)(=O)c1ccc(Nc2ncc3cnn(CC4CCOCC4)c3n2)cc1 [Compound 63, N-(4-(methylsulfonyl)phenyl)-1-((tetrahydro-2H-pyran-4-yl)methyl)-1H-pyrazolo[3,4-d]pyrimidin-6-amine]	> 150
CS(=O)(=O)c1ccc(Nc2ncc3cnn(CC4CCCCC4)c3n2)cc1C(F)(F)F [Compound 79, 1-(cyclohexylmethyl)-N-(4-(methylsulfonyl)-3-(trifluoromethyl)phenyl)-1H-pyrazolo[3,4-d]pyrimidin-6-amine]	> 150
CS(=O)(=O)c1ccc(Nc2ncc3cnn(CC4CCCCC4)c3n2)cc1F [Compound 80, 1-(cyclohexylmethyl)-N-(3-fluoro-4-(methylsulfonyl)phenyl)-1H-pyrazolo[3,4-d]pyrimidin-6-amine]	> 150
Cn1cc2cc(-n3ncc4cnc(Nc5ccc(S(C)(=O)=O)cc5)nc43)ccc2n1 [Compound 82, 1-(2-methyl-2H-indazol-5-yl)-N-(4-(methylsulfonyl)phenyl)-1H-pyrazolo[3,4-d]pyrimidin-6-amine]	> 150
CN(CCO)[C@H]1CC[C@H](Cn2ncc3cnc(Nc4ccc(S(C)(=O)=O)cc4)nc32)CC1 [Compound 84, 2-(methyl((1r,4r)-4-((6-((4-(methylsulfonyl)phenyl)amino)-1H-pyrazolo[3,4-d]pyrimidin-1-yl)methyl)cyclohexyl)amino)ethan-1-ol]	> 150

Same assay, conditions: column 25-150 nM; 3 nM CDK2/CCNE1, 1 mM ATP, 50 nM ULight-eIF4E-binding protein 1 (Thr37/46) peptide, 60 min at 23° C.; read-out: CDK2/CCNE IC50 25-150 nM

SMILES	IC50 [nM]
C=CS(=O)(=O)c1ccc(Nc2ncc3cnn(CC4CCCCC4)c3n2)cc1F [Compound 36, 1-(cyclohexylmethyl)-N-(3-fluoro-4-(vinylsulfonyl)phenyl)-1H-pyrazolo[3,4-d]pyrimidin-6-amine]	25 to 150
C=CS(=O)(=O)c1c(F)cc(Nc2ncc3cnn(CC4CCCCC4)c3n2)cc1F [Compound 37, 1-(cyclohexylmethyl)-N-(3,5-difluoro-4-(vinylsulfonyl)phenyl)-1H-pyrazolo[3,4-d]pyrimidin-6-amine]	25 to 150
CN(C)[C@H]1CC[C@@H](Cn2ncc3cnc(Nc4ccc(S(C)(=O)=O)cc4)nc32)CC1 [Compound 40, 1-(((1s,4s)-4-(dimethylamino)cyclohexyl)methyl)-N-(4-(methylsulfonyl)phenyl)-1H-pyrazolo[3,4-d]pyrimidin-6-amine formate]	25 to 150
CS(=O)(=O)c1ccc(Nc2ncc3cnn(C4CCC5(CC4)COC5)c3n2)cc1 [Compound 41, N-(4-(methylsulfonyl)phenyl)-1-(2-oxaspiro[3.5]nonan-7-yl)-1H-pyrazolo[3,4-d]pyrimidin-6-amine]	25 to 150
C=CS(=O)(=O)c1ccc(Nc2ncc3cnn(CC4CCCCC4)c3n2)cc1C(F)(F)F [Compound 42, 1-(cyclohexylmethyl)-N-(3-(trifluoromethyl)-4-(vinylsulfonyl)phenyl)-1H-pyrazolo[3,4-d]pyrimidin-6-amine]	25 to 150
CS(=O)(=O)c1ccc(Nc2ncc3cnn([C@@H]4CC[C@@H](O)C4)c3n2)cc1 [Compound 50, (1R,3R)-3-(6-((4-(methylsulfonyl)phenyl)amino)-1H-pyrazolo[3,4-d]pyrimidin-1-yl)cyclopentan-1-o1]	25 to 150
CS(=O)(=O)c1ccc(Nc2ncc3cnn([C@@H]4CCC[C@H](C#N)C4)c3n2)cc1 [Compound 52, (1S,3R)-3-(6-((4-(methylsulfonyl)phenyl)amino)-1H-pyrazolo[3,4-d]pyrimidin-1-yl)cyclohexane-1-carbonitrile]	25 to 150
CS(=O)(=O)c1ccc(Nc2ncc3cnn(C4CCC(=O)CC4)c3n2)cc1 [Compound 53, 4-(6-((4-(methylsulfonyl)phenyl)amino)-1H-pyrazolo[3,4-d]pyrimidin-1-yl)cyclohexan-1-one]	25 to 150
OCc1cc(Nc2ncc3cnn(CC4CCCCC4)c3n2)ccc1O [Compound 55, 4-((1-(cyclohexylmethyl)-1H-pyrazolo[3,4-d]pyrimidin-6-yl)amino)-2-(hydroxymethyl)phenol]	25 to 150
CN(C)[C@H]1CC[C@@H](Cn2ncc3cnc(NC4CCN(S(C)(=O)=O)CC4)nc32)CC1 [Compound 56, 1-(((1S,4S)-4-(dimethylamino)cyclohexyl)methyl)-N-(1-(methylsulfonyl)piperidin-4-yl)-1H-pyrazolo[3,4-d]pyrimidin-6-amine]	25 to 150
CCN(C)[C@H]1CC[C@@H](Cn2ncc3cnc(Nc4ccc(S(C)(=O)=O)cc4)nc32)CC1 [Compound 75, 1-(((1s,4s)-4-(ethyl(methyl)amino)cyclohexyl)methyl)-N-(4-(methylsulfonyl)phenyl)-1H-pyrazolo[3,4-d]pyrimidin-6-amine]	25 to 150
CS(=O)(=O)c1ccc(Nc2ncc3cnn(-c4ccc5cn[nH]c5c4)c3n2)cc1 [Compound 76, 1-(1H-indazol-6-yl)-N-(4-(methylsulfonyl)phenyl)-1H-pyrazolo[3,4-d]pyrimidin-6-amine]	25 to 150
Cn1ncc2cc(-n3ncc4cnc(Nc5ccc(S(C)(=O)=O)cc5)nc43)ccc21 [Compound 81, 1-(1-methyl-1H-indazol-5-yl)-N-(4-(methylsulfonyl)phenyl)-1H-pyrazolo[3,4-d]pyrimidin-6-amine]	25 to 150
